Data reported in PubChem BioAssay (NCI).
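Results reflect a 48-hour exposure of cells in 96-well plates to compound at five concentrations. TGI denotes the concentration required for complete inhibition of growth.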

Columns and labels:
Experiment in all cases: NCI anticancer screen, dose series, 48 h
DMS 273 small cell lung = tested on: DMS 273 small cell lung
RXF-631 renal = tested on: RXF-631 renal
ACHN renal = tested on: ACHN renal
HCT-15 colon = tested on: HCT-15 colon
SK-OV-3 ovarian = tested on: SK-OV-3 ovarian
UO-31 renal = tested on: UO-31 renal
UACC-257 melanoma = tested on: UACC-257 melanoma
HOP-62 NSCLC = tested on: HOP-62 NSCLC
SF-268 CNS = tested on: SF-268 CNS
K-562 leukemia = tested on: K-562 leukemia
HL-60(TB) leukemia = tested on: HL-60(TB) leukemia
HCC-2998 colon = tested on: HCC-2998 colon
MALME-3M melanoma = tested on: MALME-3M melanoma
NCI-H460 lung = tested on: NCI-H460 lung
M14 melanoma = tested on: M14 melanoma
CCRF-CEM leukemia = tested on: CCRF-CEM leukemia
IGROV1 ovarian = tested on: IGROV1 ovarian
MOLT-4 leukemia = tested on: MOLT-4 leukemia
LOX IMVI melanoma = tested on: LOX IMVI melanoma
LXFL 529 NSCLC = tested on: LXFL 529 NSCLC
XF 498 CNS = tested on: XF 498 CNS
TK-10 renal = tested on: TK-10 renal
M19-MEL melanoma = tested on: M19-MEL melanoma
U251 CNS = tested on: U251 CNS
HOP-18 NSCLC = tested on: HOP-18 NSCLC
SF-539 CNS = tested on: SF-539 CNS
HT29 colon = tested on: HT29 colon
786-0 renal = tested on: 786-0 renal
HCT-116 colon = tested on: HCT-116 colon
SK-MEL-5 melanoma = tested on: SK-MEL-5 melanoma
SK-MEL-2 melanoma = tested on: SK-MEL-2 melanoma
OVCAR-5 ovarian = tested on: OVCAR-5 ovarian
A549 NSCLC = tested on: A549 NSCLC
SW-620 colon = tested on: SW-620 colon
OVCAR-3 ovarian = tested on: OVCAR-3 ovarian
SNB-19 CNS = tested on: SNB-19 CNS
NCI-H226 lung = tested on: NCI-H226 lung
COLO 205 colon = tested on: COLO 205 colon
NCI-H522 lung = tested on: NCI-H522 lung
DMS 114 small cell lung = tested on: DMS 114 small cell lung
OVCAR-8 ovarian = tested on: OVCAR-8 ovarian
SNB-78 CNS = tested on: SNB-78 CNS
DLD-1 colon = tested on: DLD-1 colon
A498 renal = tested on: A498 renal
UACC-62 melanoma = tested on: UACC-62 melanoma
HOP-92 NSCLC = tested on: HOP-92 NSCLC
CAKI-1 renal = tested on: CAKI-1 renal
RXF 393 renal = tested on: RXF 393 renal
SN12C renal = tested on: SN12C renal
KM12 colon = tested on: KM12 colon
SR leukemia = tested on: SR leukemia
SK-MEL-28 melanoma = tested on: SK-MEL-28 melanoma
SF-295 CNS = tested on: SF-295 CNS
OVCAR-4 ovarian = tested on: OVCAR-4 ovarian
EKVX NSCLC = tested on: EKVX NSCLC
NCI-H23 lung = tested on: NCI-H23 lung
KM20L2 colon = tested on: KM20L2 colon
SNB-75 CNS = tested on: SNB-75 CNS
RPMI-8226 leukemia = tested on: RPMI-8226 leukemia

Measured: TGI

CCOC(=O)C1C(=O)CN2CCc3c([nH]c4ccccc34)C12C(=O)OCC (configuration not stated)
not listed: RPMI-8226 leukemia
> 100 µM: all other assays above

O=c1[nH]c2nc3ccccc3n2c(O)c1-c1ccccc1
> 100 µM: all assays above
